Data taken from article PMC11377810, “A Gaussia luciferase reporter assay for the evaluation of coronavirus Nsp5/3CLpro activity” (Scientific Reports, 2024).

What was measured:
COVID-19 = conditions: cited from earlier work
SARS-CoV-2 Nsp5 [1] = target: T1, SARS-CoV-2 Nsp5 (Severe acute respiratory syndrome coronavirus 2, UniProt P0DTD1)
SARS-CoV-2 Nsp5 [2] = target: T1, SARS-CoV-2 Nsp5; assay: cell-based
HEK293T reporter cells [3] = assay: MTT assay of cell metabolic activity of reporter cells; conditions: at the active concentrations ≥ 20 µM, Fig. 4c
[4] = in vivo, cited from earlier work
HEK293T reporter cells [5] = test system: HEK293T reporter cells

Cc1cccc(C)c1OCC(=O)N[C@@H](Cc1ccccc1)[C@@H](O)C[C@H](Cc1ccccc1)NC(=O)[C@H](C(C)C)N1CCCNC1=O [Lopinavir]
benefit in the treatment of COVID-19 (COVID-19; COVID-19 patients, clinical trials): little to no benefit
benefit in COVID-19 patients (COVID-19; multiple clinical trials): no significant benefit
concentrations that significantly decreased the Gaussia luciferase signal (lowest significantly active dose) (SARS-CoV-2 Nsp5 [1]): ≥ 20 µM
effective and non-cytotoxic concentration range (SARS-CoV-2 Nsp5 [1]): 8 to 64 µM
IC50 (SARS-CoV-2 Nsp5 [2]; IC50, inhibition of Nsp5 reporter (Gaussia luciferase) activity): 21 µM
IC50 (SARS-CoV-2 Nsp5 [2]; IC50, inhibition of Nsp5 reporter activity, re-evaluated at lower nontoxic concentrations, additional concentrations, 8–64 µM range (Fig. 4e)): 12 µM
cytotoxicity (MTT) (HEK293T reporter cells [3]): cytotoxic at all of the tested active concentrations

COc1cccc2[nH]c(C(=O)N[C@@H](CC(C)C)C(=O)N[C@@H](C[C@@H]3CCNC3=O)C(=O)COP(=O)(O)O)cc12 [Lufotrelvir]
oral bioavailability ([4]; po): low
systemic clearance [4]: fast

COc1cccc2[nH]c(C(=O)N[C@@H](CC(C)C)C(=O)N[C@@H](C[C@@H]3CCNC3=O)C(=O)CO)cc12 [PF-00835231]
non-cytotoxic concentrations (HEK293T reporter cells [5]): ≤ 50 µM
